Drawing on patent US9108983B2, “Pyrrole compounds, a process for their preparation and pharmaceutical compositions containing them” (LES LABORATOIRES SERVIER, priority 2013, dated 2015), this text covers IC50 for 14 compounds.

SMILES strings stand for the structures. Structures can show the parent of a compound that is named as a salt.

One assay concerns the target Bcl-2 protein (histag-Bcl-2, UniProtKB P10415) (Homo sapiens (Human), UniProt P10415). In words: Inhibition of Bcl-2 by the fluorescence polarisation technique. It counts as binding. The settings on record: incubation for 2 hours, read-out: IC50 (nM) Bcl-2 FP. In a few lines: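 In pH 7.4 buffer (Hepes 10 mM, NaCl 150 mM, Tween20 0.05%), test compounds at increasing concentrations competed with a fluorescein peptide (1.00×10^−8 M final) for histag-Bcl-2 (2.50×10^−8 M final). Readout was fluorescence polarisation after a 2 h incubation.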

Assay [1] relates to RS4;11 leukaemia tumour line. In words: In vitro cytotoxicity (Microculture Tetrazolium Assay). It is filed as cell-based. The settings on record: Homo sapiens, RS4-11, 48 h, RS4;11 cells, exposed for 48 hours, cell viability; read-out: IC50 (nM) MTT RS4;11. How it is done:
The cytotoxicity studies were carried out on the RS4;11 leukaemia tumour line.
The cells are distributed onto microplates and exposed to the test compounds for 48 hours.
The cell viability is then quantified by a colorimetric assay, the Microculture Tetrazolium Assay (Cancer Res., 1987, 47, 939-942).

Bcl-2 protein, sequence (P10415 whole entry): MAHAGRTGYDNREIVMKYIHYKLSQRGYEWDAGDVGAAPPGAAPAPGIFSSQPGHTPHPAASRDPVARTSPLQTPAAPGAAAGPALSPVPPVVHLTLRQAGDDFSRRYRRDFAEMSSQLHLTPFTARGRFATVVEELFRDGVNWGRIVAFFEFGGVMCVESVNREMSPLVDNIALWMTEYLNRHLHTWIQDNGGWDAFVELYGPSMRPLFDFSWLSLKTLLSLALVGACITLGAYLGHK

On to `COc1ccc(-c2cc(C(=O)N(c3ccc(O)cc3)c3cnn(C)c3)c(C)n2C)c(C(=O)N2Cc3ccccc3C[C@H]2CN2CCOCC2)c1` [Example 418, N-(4-Hydroxyphenyl)-5-(4-methoxy-2-{[(3S)-3-(morpholin-4-ylmethyl)-3,4-dihydroisoquinolin-2(1H)-yl]carbonyl}phenyl)-1,2-dimethyl-N-(1-methyl-1H-pyrazol-4-yl)-1H-pyrrole-3-carboxamide hydrochloride], for which the IC50 at Bcl-2 protein worked out at 10.1 nM; in assay [1] it was 159 nM.

On to `Cc1c(C(=O)N(c2ccc(O)cc2)c2cccc(C#N)c2)cc(-c2cc(F)ccc2C(=O)N2Cc3ccccc3C[C@H]2CN2CCOCC2)n1C` [Example 419, N-(3-Cyanophenyl)-5-(5-fluoro-2-{[(3S)-3-(morpholin-4-ylmethyl)-3,4-dihydroisoquinolin-2(1H)-yl]carbonyl}phenyl)-N-(4-hydroxyphenyl)-1,2-dimethyl-1H-pyrrole-3-carboxamide hydrochloride], for which the 50% inhibitory concentration (IC50) at Bcl-2 protein was 2.8 nM; in assay [1], 15.8 nM.

For the compound `Cc1c(N(C(=O)c2cc(-c3cc(F)ccc3C(=O)N3Cc4ccccc4C[C@H]3CN3CCOCC3)n(C)c2C)c2ccc(O)cc2)cc(C#N)n1C` [Example 421, N-(5-Cyano-1,2-dimethyl-1H-pyrrol-3-yl)-5-(5-fluoro-2-{[(3S)-3-(morpholin-4-ylmethyl)-3,4-dihydroisoquinolin-2(1H)-yl]carbonyl}phenyl)-N-(4-hydroxyphenyl)-1,2-dimethyl-1H-pyrrole-3-carboxamide hydrochloride], the IC50 at Bcl-2 protein is 2.5 nM; in assay [1], 3.73 nM.

Regarding `Cc1c(C(=O)N(c2ccc(O)cc2)c2cnn(C)c2)cc(-c2ccccc2C(=O)N2Cc3ccccc3C[C@H]2CN2CCOCC2)n1C` [Example 422, N-(4-Hydroxyphenyl)-1,2-dimethyl-N-(1-methyl-1H-pyrazol-4-yl)-5-(2-{[(3S)-3-(morpholin-4-ylmethyl)-3,4-dihydroisoquinolin-2(1H)-yl]carbonyl}phenyl)-1H-pyrrole-3-carboxamide hydrochloride], the half-maximal inhibitory concentration (IC50) at Bcl-2 protein was 9.2 nM; in assay [1] it was 101 nM.

Turning to `Cc1c(C(=O)N(c2ccc(O)cc2)c2cnn(C3COC3)c2)cc(-c2cc(F)ccc2C(=O)N2Cc3ccccc3C[C@H]2CN2CCOCC2)n1C` [Example 423, 5-(5-Fluoro-2-{[(3S)-3-(morpholin-4-ylmethyl)-3,4-dihydroisoquinolin-2(1H)-yl]carbonyl}phenyl)-N-(4-hydroxyphenyl)-1,2-dimethyl-N-[1-(oxetan-3-yl)-1H-pyrazol-4-yl]-1H-pyrrole-3-carboxamide], the half-maximal inhibitory concentration (IC50) on Bcl-2 protein was determined as 11.7 nM; in assay [1] it was 344 nM.

On to `COc1ncc(N(C(=O)c2cc(-c3ccccc3C(=O)N3Cc4ccccc4C[C@H]3CN3CCOCC3)n(C)c2C)c2ccc(O)cc2)cn1` [Example 424, N-(4-Hydroxyphenyl)-N-(2-methoxypyrimidin-5-yl)-1,2-dimethyl-5-(2-{[(3S)-3-(morpholin-4-ylmethyl)-3,4-dihydroisoquinolin-2(1H)-yl]carbonyl}phenyl)-1H-pyrrole-3-carboxamide hydrochloride], for which the IC50 came out at 13.6 nM on Bcl-2 protein and 102 nM in assay [1].

For the compound `COc1cc(C#N)cc(N(C(=O)c2cc(-c3cc(F)ccc3C(=O)N3Cc4ccccc4C[C@H]3CN3CCOCC3)n(C)c2C)c2ccc(O)cc2)c1` [Example 425, N-(3-Cyano-5-methoxyphenyl)-5-(5-fluoro-2-{[(3S)-3-(morpholin-4-ylmethyl)-3,4-dihydroisoquinolin-2(1H)-yl]carbonyl}phenyl)-N-(4-hydroxyphenyl)-1,2-dimethyl-1H-pyrrole-3-carboxamide hydrochloride], the 50% inhibitory concentration (IC50) at Bcl-2 protein was determined as 4.2 nM; in assay [1], 62 nM.

For `COc1ncc(N(C(=O)c2cc(-c3cc(F)ccc3C(=O)N3Cc4ccccc4C[C@H]3CN3CCOCC3)n(C)c2C)c2ccc(O)cc2)cn1` [Example 426, 5-(5-Fluoro-2-{[(3S)-3-(morpholin-4-ylmethyl)-3,4-dihydroisoquinolin-2(1H)-yl]carbonyl}phenyl)-N-(4-hydroxyphenyl)-N-(2-methoxypyrimidin-5-yl)-1,2-dimethyl-1H-pyrrole-3-carboxamide], the results for the concentration for half-maximal inhibition (IC50) (at Bcl-2 protein; in assay [1]) were 5.2 nM and 139 nM, respectively.

With `COc1ccc(N(C(=O)c2cc(-c3cc(F)ccc3C(=O)N3Cc4ccccc4C[C@H]3CN3CCOCC3)n(C)c2C)c2ccc(O)cc2)cc1C#N` [Example 427, N-(3-Cyano-4-methoxyphenyl)-5-(5-fluoro-2-{[(3S)-3-(morpholin-4-ylmethyl)-3,4-dihydroisoquinolin-2(1H)-yl]carbonyl}phenyl)-N-(4-hydroxyphenyl)-1,2-dimethyl-1H-pyrrole-3-carboxamide hydrochloride], the half-maximal inhibitory concentration (IC50) on Bcl-2 protein came to 2.2 nM; in assay [1], 23.3 nM.

`Cc1c(N(C(=O)c2cc(-c3ccc(F)cc3C(=O)N3Cc4ccccc4C[C@H]3CN3CCOCC3)n(C)c2C)c2ccc(O)cc2)cc(C#N)n1C` [Example 428, N-(5-Cyano-1,2-dimethyl-1H-pyrrol-3-yl)-5-(4-fluoro-2-{[(3S)-3-(morpholin-4-ylmethyl)-3,4-dihydroisoquinolin-2(1H)-yl]carbonyl}phenyl)-N-(4-hydroxyphenyl)-1,2-dimethyl-1H-pyrrole-3-carboxamide hydrochloride]: the IC50 on Bcl-2 protein worked out at 3.5 nM; in assay [1], 59.2 nM.

`COc1cc(-c2cc(C(=O)N(c3ccc(O)cc3)c3cc(C#N)n(C)c3C)c(C)n2C)c(C(=O)N2Cc3ccccc3C[C@H]2CN2CCOCC2)cc1F` [Example 429, N-(5-Cyano-1,2-dimethyl-1H-pyrrol-3-yl)-5-(4-fluoro-5-methoxy-2-{[(3S)-3-(morpholin-4-ylmethyl)-3,4-dihydroisoquinolin-2(1H)-yl]carbonyl}phenyl)-N-(4-hydroxyphenyl)-1,2-dimethyl-1H-pyrrole-3-carboxamide hydrochloride]: the IC50 at Bcl-2 protein came out at 3.1 nM; in assay [1], 109 nM.

In the case of `Cc1c(C(=O)N(c2ccc(O)cc2)c2cnc3c(ccn3C)c2)cc(-c2cc(Cl)ccc2C(=O)N2Cc3ccccc3CC2C(F)(F)F)n1C` (stereo not shown) [Example 430, 5-(5-Chloro-2-{[3-(trifluoromethyl)-3,4-dihydroisoquinolin-2(1H)-yl]-carbonyl}phenyl)-N-(4-hydroxyphenyl)-1,2-dimethyl-N-(1-methyl-1H-pyrrolo[2,3-b]-pyridin-5-yl)-1H-pyrrole-3-carboxamide], the figures for the IC50 (on Bcl-2 protein; in assay [1]) were 19.9 nM and 328 nM, respectively.

Regarding `Cc1nn(C)cc1N(C(=O)c1cc(-c2cc(Cl)ccc2C(=O)N2Cc3ccccc3C[C@H]2CN2CCOCC2)n(C)c1C)c1ccc(O)cc1` [Example 431, 5-(5-Chloro-2-{[(3S)-3-(morpholin-4-ylmethyl)-3,4-dihydroisoquinolin-2(1H)-yl]carbonyl}phenyl)-N-(1,3-dimethyl-1H-pyrazol-4-yl)-N-(4-hydroxyphenyl)-1,2-dimethyl-1H-pyrrole-3-carboxamide hydrochloride], the half-inhibitory concentration (IC50) came to 3 nM at Bcl-2 protein and 89 nM in assay [1].

For `Cc1c(N(C(=O)c2cc(-c3cc(Cl)ccc3C(=O)N3Cc4ccccc4C[C@H]3CN3CCOCC3)n(C)c2C)c2ccc(O)cc2)cnn1C` [Example 432, 5-(5-Chloro-2-{[(3S)-3-(morpholin-4-ylmethyl)-3,4-dihydroisoquinolin-2(1H)-yl]carbonyl}phenyl)-N-(1,5-dimethyl-1H-pyrazol-4-yl)-N-(4-hydroxyphenyl)-1,2-dimethyl-1H-pyrrole-3-carboxamide hydrochloride], the 50% inhibitory concentration (IC50) at Bcl-2 protein was found to be 3.4 nM; in assay [1], 76.6 nM.
